Assay results as given in publication PMC9501900 (Molecules, 2022).

Key:
[1] = Pharmacokinetics of gefitinib in rats, alone and coadministered with CJ (serum, LC-MS/MS); format: in vivo; details: for Change (increase) of AUC0-t of gefitinib / Change (increase) of Cmax of gefitinib: coadministration with CJ (5.0 g/kg of cranberry) vs gefitinib alone, p < 0.05; for Change (increase) of AUC0-t of gefitinib / Change (increase) of Cmax of gefitinib / AUC(0-t) / Cmax / MRT / Tmax: rats; for AUC(0-t) / Cmax / MRT / Tmax: male, Sprague-Dawley, rat, serum, po, 50 mg/kg, mean ± S.E., n = 5
Description: Twelve male Sprague-Dawley rats (300–400 g) were supplied by BioLASCO Taiwan Co., Ltd. […] […] Rats were fasted for 12 h before dosing, and food was offered 3 h after drug administration. […] The serum was collected after centrifugation at 10,000× g for 15 min and stored at −20 °C until analysis.
Briefly, 50 μL of serum was partitioned with an equal volume of ethyl acetate containing erlotinib (0.5 μg/mL) as internal standard. The ethyl acetate layer was evaporated under N2 gas to dryness and reconstituted with 50 μL of acetonitrile containing 0.1% formic acid, and then 5 μL was subject to LC-MS/MS analysis.
The mobile phase consisted of 0.1% formic acid (A) and acetonitrile containing 0.1% formic acid (B), and a gradient elution was programmed as follows: A/B: 80/20 (0–1.0 min), 0/100 (1.0–3.5 min) and 80/20 (3.5–6.5 min). The flow rate was 0.2 mL/ min. Nitrogen was used as sheath gas at 50 arbitrary units and auxiliary gas at 10 arbitrary units. […] ESI-MS spectra were recorded in the positive ion mode.
Pharmacokinetic parameters were calculated by the noncompartment model of Phoenix WinNonlin® (version 8.1 Pharsight Corporation, St. Louis, MO, USA). The peak serum concentration (Cmax) was calculated based on experimental measurement. The areas under the serum concentration–time curves (AUC0-t) from time zero to last were calculated by the trapezoidal rule. Each pharmacokinetic parameter was compared among various treatment groups using one-way analysis of variance (ANOVA) with Scheffe’s test. Other studies were statistically compared using unpaired Student’s t-test. Statistical significance level was set at p < 0.05.

[2] = cited from earlier work
[3] = gefitinib 50 mg/kg oral + water
[4] = gefitinib 50 mg/kg oral coadministered with CJ (5.0 g/kg of cranberry)

Row | Compound | Concentrations of O-desmethyl gefitinib in serum ([1]; rat serum samples after oral gefitinib 50 mg/kg, calibration range 0.50–0.03 μg/mL) | Change (increase) of AUC0-t of gefitinib [1] | Change (increase) of Cmax of gefitinib [1] | Change (increase) of AUC0-t of gefitinib ([1]; listed as gefitinib) [%] | Change (increase) of Cmax of gefitinib ([1]; listed as gefitinib) [%] | AUC(0-t) [1, 3] [ng·h/mL] | Cmax [1, 3] [ng/mL] | MRT [1, 3] [h] | Tmax [1, 3] [h] | AUC(0-t) [1, 4] [ng·h/mL] | Cmax [1, 4] [ng/mL] | MRT [1, 4] [h] | Tmax [1, 4] [h] | Bioavailability [2] | Elimination half-life [2] [h]
1 | Oc1cc2ncnc(Nc3ccc(F)c(Cl)c3)c2cc1OCCCN1CCOCC1 [O-desmethyl gefitinib] | below the LLOQ |  |  |  |  |  |  |  |  |  |  |  |  |  | 
2 | COc1cc2ncnc(Nc3ccc(F)c(Cl)c3)c2cc1OCCCN1CCOCC1 [Gefitinib] |  | (+55%) | (+28%) | 55 | 28 | 19500 | 1800 ± 300 | 8.52 | 4.4 | 30300 | 2300 ± 200 | 9.05 | 3.6 | 57–59% | > 24
